In patent US8999890B2, “Signaling compositions, methods, and systems for effecting plant burndown and herbicide enhancement” (KamTec, priority 2013, dated 2015):
Several values for one entry are separate records, joined by “and”; a condition that tells them apart may be missing. Equal values may be shown once.

Columns and labels:
Type in all cases: in vivo
‘M-202’ type rice = assay: Rice seed soaking treatment, 24 hours (Example II); settings: for Biomass / Height / Tillering: 24 hrs soak, tap water irrigation, vs Set 1 (water)
Procedure: In this preferred embodiment of the present invention, seeds are soaked in prepared bio-regulator solutions for a period of 24 hours. Rice seeds were selected from the same ‘M-202’ type grains as in the previous study. The bio-regulator solutions were prepared using 5 ppm BMPA solution. The solution was drained and seeds planted in starter plastic containers filled with potting soil. After germination and plant growth reaching height of four inches, rice seedlings were transplanted from their greenhouse containers to six-inch diameter plastic containers and placed outdoor. Again, two sets of three pots for the control and test group were used.
These studies were also carried out using an increased amount of BMPA. The amount was increased from 1 ppm to 5 ppm, and the results of the study were similar to the results outlined in the paragraph above.

[1] = test system: aphid infestation on cotton Bt plant; assay: Cotton Bt seed soaking, aphid infestation (Example VII)
Procedure: In this preferred embodiment of the present invention, seeds were soaked for a period of 3 hours in the bio-regulator solution. Cotton Bt were selected and studied to determine if bio-regulator chemistry will enhance or influence the inserted Bt genes of the transgenic plant. The seeds were separated into two different sets on July 2. The first set, Set 1, was soaked in 5 ppm BMPA solution with 0.05% Kinetic®. The second set, Set 2, was soaked in water with 0.05% v/v Kinetic®. The solution was drained and the treated seeds planted in starter plastic trays. After germination and after the seedlings reached the height of four inches, the cotton Bt plants were transplanted into larger six-inch plastic containers. The cotton plants were placed outdoors for the duration of the study. The different sets of plants were regularly observed throughout this study.

[2] = test system: sunflower, Melody variety; assay: Sunflower seed soaking, field plots (Example XI); settings: for % Moist: control 12.53; for Wt at 6% Moist: control 60.74; for Wt. at 6 % Moist: normalized to 6% seed moisture content
Text: In this preferred embodiment of the present invention, sunflower seeds were selected from the Melody variety and were soaked for three hours in solutions containing 0.05% Tween 20 and BMTA or BMPA, at a concentration of 3 ppm. Another group of seeds of the same variety was soaked in a solution with only in 0.05% Tween 20 added (control). Following soaking, seeds were desiccated to storage moisture contents and BMTA, BMPA and control seeds were sown in three twenty-five foot plots (Reps) each on May 21 (plots were arranged in a randomized block design). On September 16, sunflower heads were harvested, with a harvest of around 20 heads per plot/Rep on average. The heads were hand-threshed to collect seeds. Moisture, count, and weight data was collected on seeds from each head.

geranium slips = assay: Treatment of geranium slips (Example III)
Procedure: In this preferred embodiment of the present invention, according to common geranium cutting means, geraniums were slipped into 18 slips of similar length. In this example the slips had no flower buds. The slips were separated into four different sets: three slips each in three of the sets, and then nine slips in the final set. The slips are then treated with bio-regulator solutions formed from compositions from the different groups and water. In the first set, the slips were treated with BMVE solution; in the second set, the slips were treated with BMTA solution; in the third set, the slips were treated with BMIA in bromide solution; and, in the fourth set, the nine slips were treated with water.
The treatment with bio-regulator solution preferably occurs in the initial planting of the geranium slips, but can also occur at any time from the forming of the geranium slips up to and including the transplanting of the slips. The treatment can occur after transplanting, but this is not the preferred method. […]
The study associated with this embodiment is summarized in Table 3-A below, where Set 1 is the control group and Set 2 is the test group. […] The ratios for Table 3-C are calculated by totaling the heights grown by each slip in each set and comparing it to the control counterpart that was grown in similar environmental conditions, without the treatment of the bio-regulator solutions. […]

[3] = test system: ‘M-202’ medium-grain rice (Oryza sativa L.); assay: Rice seed soaking treatment with NaCl irrigation (Example I)
Procedure: In another preferred embodiment of the present invention, seeds are soaked in prepared bio-regulator solutions for a period of three hours. Rice seeds were selected from ‘M-202’ medium-grain rice (Oryza sativa L.), (Reg. no 72) PI494105 type grains; this selection was meant to represent a typical California rice seed, and was not meant to be limiting. The bio-regulator solutions are prepared using 5 ppm BMTA solution with 0.05% v/v Kinetic® made by Helena Chemical Company. The solution was drained and the seeds planted in starter plastic containers with potting soil. After germination and having grown to 4 inches in height, the plants were transplanted into 6 inch diameter plastic containers. Two sets of three pots each were set up for this study; one set for the test group and one set for the control group. Both the control and test studies were irrigated with 1500 ppm NaCl solution from time of planting until the study was completed. The purpose of the NaCl irrigation was to determine the effect of the bio-regulator treatment in regards to salt tolerances.

[4] = mean over the three Reps, control 65.47
[5] = mean over the three Reps, control 1062
[6] = mean over the three Reps, control 2676
[7] = per Rep (plot), 3 ppm, three hours soak
[8] = per Rep, estimate based on planting rate of 20,000 seeds/acre
[9] = BMTA soln. 5 ppm, 3 hours seed soak, NaCl soln. irrigation, vs Set 1 (tap water)

SMILES: CN(CCOC(=O)COc1ccccc1)Cc1ccccc1 [BMPA]
- Observed growth from planting through completion of the study (‘M-202’ type rice; 5 ppm BMPA, 24 hours soak): enhanced growth
- Biomass (‘M-202’ type rice; BMPA 1 ppm): ~4 x Set 1
- Height (‘M-202’ type rice; BMPA 1 ppm): ~1.2 x Set 1
- Tillering (‘M-202’ type rice; BMPA 1 ppm): ~4 x Set 1
- Biomass (‘M-202’ type rice; BMPA 5 ppm): ~4 x Set 1
- Height (‘M-202’ type rice; BMPA 5 ppm): ~1.2 x Set 1
- Tillering (‘M-202’ type rice; BMPA 5 ppm): ~4 x Set 1
- Delay of the infestation of aphids on the cotton Bt plant ([1]; 5 ppm BMPA seed soak vs untreated): ≤ 19 days
- Aphid infestation, Treated ([1]; 47 days after planting, 5 ppm BMPA, 3 hrs seed soak, control L-Aphid): No Aphid
- Aphid infestation, Treated ([1]; 55 days after planting, control H-Aphid): No Aphid
- Aphid infestation, Treated ([1]; 57 days after planting, control H-Aphid): L-Aphid
- Aphid infestation, Treated ([1]; 74 days after planting, control Stressed): M-Aphid
- % Moist ([2]; mean over the three Reps): 13.27%
- Wt at 6% Moist ([2]; mean over the three Reps): 64.29
- Fresh Seed Wt. [2, 4]: 69.75 g
- Seed Count [2, 5]: 1071
- Yield @ 20,000 Plants/Acre [2, 6]: 2832 lbs
- % Moist (seed moisture content) [2, 7]: 13.52% and 13.93% and 12.37%
- Fresh Seed Wt. [2, 7]: 78.24 gm and 65.01 gm and 65.99 gm
- Seed Count [2, 7]: 1185 and 977 and 1052
- Yield @ 20,000 Plants/Acre [2, 8]: 3171 lbs and 2617 lbs and 2708 lbs
- Wt. at 6 % Moist ([2]; per Rep): 71.99 and 59.42 and 61.46

SMILES: Cc1ccc(C(=O)OCCN(C)Cc2ccccc2)cc1 [BMTA]
- % of Control (geranium slips; Day 11, total height vs water control slips): 186.49%
- % of Control (geranium slips; Day 27, total height vs water control slips): 162.26%
- % Moist ([2]; mean over the three Reps): 13.64%
- Wt at 6% Moist ([2]; mean over the three Reps): 65.08
- Fresh Seed Wt. [2, 4]: 70.85 g
- Seed Count [2, 5]: 1108
- Yield @ 20,000 Plants/Acre [2, 6]: 2867 lbs
- % Moist (seed moisture content) [2, 7]: 13.10% and 13.01% and 14.82%
- Fresh Seed Wt. [2, 7]: 77.35 gm and 73.58 gm and 61.64 gm
- Seed Count [2, 7]: 1226 and 1157 and 942
- Yield @ 20,000 Plants/Acre [2, 8]: 3147 lbs and 2989 lbs and 2464 lbs
- Wt. at 6 % Moist ([2]; per Rep): 71.43 and 67.86 and 55.94
- Observed growth from planting through completion of the study ([3]; 5 ppm BMTA, 1500 ppm NaCl irrigation): enhanced growth
- Biomass [3, 9]: ~3 x Set 1
- Height [3, 9]: Same
- Tillering [3, 9]: ~3 x Set 1
